Reference: PubChem BioAssay AID200 (DTP/NCI, 2004)
Several values for one entry are separate records, joined by “and”; a condition that tells them apart may be missing. Equal entries are not always repeated. Toxic doses and inconclusive results are not listed.

System: B6C3F1 mice, B16 melanoma ip, median survival T/C
Experiment: NCI In Vivo Anticancer Drug Screen. Data for tumor model B16 Melanoma (intraperitoneal) in B6C3F1 mice
Conditions: endpoint: median survival time, higher = longer survival
Protocol: The antitumor activity of compounds was measured in mice bearing transplantable tumors. Survival or tumor size were measured and the results are expressed as the measurement made in the treated group (T) divided by the measurement made in the vehicle treated control group (C). The tumor model used in this assay is B16 Melanoma (intraperitoneal) in B6C3F1 mice

SMILES: NCCc1cc(O)c(O)c(O)c1
- T/C (dose: 12.5 mg/kg/injection, schedule: Q01DX009 (ip), vehicle: saline): 106 % of control
- T/C (dose: 25.0 mg/kg/injection, schedule: Q01DX009 (ip), vehicle: saline): 105 % of control
- T/C (dose: 50.0 mg/kg/injection, schedule: Q01DX009 (ip), vehicle: saline): 101 % of control
- T/C (dose: 100.0 mg/kg/injection, schedule: Q01DX009 (ip), vehicle: saline): 98 % of control
- T/C (dose: 200.0 mg/kg/injection, schedule: Q01DX009 (ip), vehicle: saline): 106 % of control
- T/C (dose: 400.0 mg/kg/injection, schedule: Q01DX009 (ip), vehicle: saline): 96 % of control

SMILES: C[C@@H]1C[C@H]2[C@@H]3CCC4=CC(=O)C=C[C@]4(C)[C@@]3(F)[C@@H](O)C[C@]2(C)[C@@]1(O)C(=O)CO
- T/C (dose: 3.12 mg/kg/injection, schedule: Q01DX009 (ip), vehicle: Klucel (hydroxypropylcellulose) (HPC)): 109 % of control
- T/C (dose: 6.25 mg/kg/injection, schedule: Q01DX009 (ip), vehicle: Klucel (hydroxypropylcellulose) (HPC)): 118 % of control
- T/C (dose: 12.5 mg/kg/injection, schedule: Q01DX009 (ip), vehicle: Klucel (hydroxypropylcellulose) (HPC)): 104 % of control

SMILES: O=c1[nH]cnc2[nH]ncc12
- T/C (dose: 12.5 mg/kg/injection, schedule: Q01DX009 (ip), vehicle: suspension in saline): 103 % of control
- T/C (dose: 25.0 mg/kg/injection, schedule: Q01DX009 (ip), vehicle: suspension in saline): 112 % of control
- T/C (dose: 50.0 mg/kg/injection, schedule: Q01DX009 (ip), vehicle: suspension in saline): 97 % of control
- T/C (dose: 100.0 mg/kg/injection, schedule: Q01DX009 (ip), vehicle: suspension in saline): 88 % of control

SMILES: C[C@@]1(CO)[C@H](O)CC[C@@]2(C)[C@H]1CC[C@H]1C[C@@H]3C[C@@]12CC[C@@]3(O)COC(=O)CN
- T/C (dose: 0.02 mg/kg/injection, schedule: Q01DX009 (ip), vehicle: saline + alcohol): 98 % of control
- T/C (dose: 0.37 mg/kg/injection, schedule: Q01DX009 (ip), vehicle: saline + alcohol): 94 % of control
- T/C (dose: 0.4 mg/kg/injection, schedule: Q01DX009 (ip), vehicle: saline + alcohol): 102 % of control
- T/C (dose: 0.75 mg/kg/injection, schedule: Q01DX009 (ip), vehicle: saline + alcohol): 98 % of control
- T/C (dose: 0.8 mg/kg/injection, schedule: Q01DX009 (ip), vehicle: saline + alcohol): 124 % of control
- T/C (dose: 1.5 mg/kg/injection, schedule: Q01DX009 (ip), vehicle: saline + alcohol): 101 % of control
- T/C (dose: 1.6 mg/kg/injection, schedule: Q01DX009 (ip), vehicle: saline + alcohol): 101 % of control
- T/C (dose: 1.7 mg/kg/injection, schedule: Q01DX005 (iv), vehicle: saline + alcohol): 108 % of control
- T/C (dose: 2.1 mg/kg/injection, schedule: Q01DX001 (iv), vehicle: saline + alcohol): 111 % of control
- T/C (dose: 2.1 mg/kg/injection, schedule: Q03HX008 (ip), vehicle: saline + alcohol): 120 % of control
- T/C (dose: 2.8 mg/kg/injection, schedule: Q03HX024 (ip), vehicle: saline + alcohol): 97 % of control
- T/C (dose: 3.0 mg/kg/injection, schedule: Q01DX009 (ip), vehicle: saline + alcohol): 102 % of control
- T/C (dose: 3.4 mg/kg/injection, schedule: Q01DX005 (iv), vehicle: saline + alcohol): 99 % of control
- T/C (dose: 4.2 mg/kg/injection, schedule: Q01DX001 (iv), vehicle: saline + alcohol): 103 % of control
- T/C (dose: 4.2 mg/kg/injection, schedule: Q03HX008 (ip), vehicle: saline + alcohol): 119 % of control
- T/C (dose: 5.0 mg/kg/injection, schedule: Q03HX027 (ip), vehicle: saline + alcohol): 113 % of control and 105 % of control and 107 % of control
- T/C (dose: 5.0 mg/kg/injection, schedule: Q03HX027 (sc), vehicle: saline + alcohol): 109 % of control
- T/C (dose: 5.6 mg/kg/injection, schedule: Q03HX024 (ip), vehicle: saline + alcohol): 116 % of control
- T/C (dose: 6.0 mg/kg/injection, schedule: Q01DX009 (ip), vehicle: saline + alcohol): 93 % of control
- T/C (dose: 6.75 mg/kg/injection, schedule: Q01DX005 (ip), vehicle: saline + alcohol): 95 % of control
- T/C (dose: 6.8 mg/kg/injection, schedule: Q01DX005 (iv), vehicle: saline + alcohol): 96 % of control
- T/C (dose: 8.4 mg/kg/injection, schedule: Q03HX008 (ip), vehicle: saline + alcohol): 114 % of control
- T/C (dose: 8.5 mg/kg/injection, schedule: Q01DX001 (iv), vehicle: saline + alcohol): 109 % of control
- T/C (dose: 10.0 mg/kg/injection, schedule: Q03HX027 (ip), vehicle: saline + alcohol): 117 % of control and 123 % of control
- T/C (dose: 10.0 mg/kg/injection, schedule: Q03HX027 (sc), vehicle: saline): 102 % of control
- T/C (dose: 12.5 mg/kg/injection, schedule: Q01DX009 (ip), vehicle: saline + alcohol): 111 % of control and 120 % of control
- T/C (dose: 13.5 mg/kg/injection, schedule: Q01DX005 (ip), vehicle: saline + alcohol): 104 % of control
- T/C (dose: 15.0 mg/kg/injection, schedule: Q01DX009 (ip), vehicle: saline + alcohol): 116 % of control
- T/C (dose: 16.8 mg/kg/injection, schedule: Q03HX008 (ip), vehicle: saline + alcohol): 114 % of control
- T/C (dose: 16.9 mg/kg/injection, schedule: Q01DX001 (ip), vehicle: saline + alcohol): 103 % of control
- T/C (dose: 16.9 mg/kg/injection, schedule: Q01DX001 (iv), vehicle: saline + alcohol): 103 % of control
- T/C (dose: 20.0 mg/kg/injection, schedule: Q03HX027 (ip), vehicle: saline + alcohol): 162 % of control
- T/C (dose: 20.0 mg/kg/injection, schedule: Q03HX027 (sc), vehicle: saline + alcohol): 108 % of control
- T/C (dose: 20.0 mg/kg/injection, schedule: Q03HX027 (sc), vehicle: saline): 100 % of control
- T/C (dose: 22.5 mg/kg/injection, schedule: Q04DX003 (ip), vehicle: saline + alcohol): 98 % of control
- T/C (dose: 25.0 mg/kg/injection, schedule: Q01DX009 (ip), vehicle: saline + alcohol): 121 % of control and 122 % of control
- T/C (dose: 27.0 mg/kg/injection, schedule: Q01DX005 (ip), vehicle: saline + alcohol): 124 % of control
- T/C (dose: 27.0 mg/kg/injection, schedule: Q01DX005 (iv), vehicle: saline + alcohol): 105 % of control
- T/C (dose: 30.0 mg/kg/injection, schedule: Q01DX009 (ip), vehicle: saline + alcohol): 124 % of control
- T/C (dose: 30.0 mg/kg/injection, schedule: Q01DX009 (oral), vehicle: saline + alcohol): 115 % of control
- T/C (dose: 33.7 mg/kg/injection, schedule: Q03HX008 (ip), vehicle: saline + alcohol): 115 % of control
- T/C (dose: 33.8 mg/kg/injection, schedule: Q01DX001 (ip), vehicle: saline + alcohol): 110 % of control
- T/C (dose: 33.8 mg/kg/injection, schedule: Q01DX001 (iv), vehicle: saline + alcohol): 115 % of control
- T/C (dose: 40.0 mg/kg/injection, schedule: Q03HX027 (ip), vehicle: saline + alcohol): 175 % of control and 176 % of control
- T/C (dose: 40.0 mg/kg/injection, schedule: Q03HX027 (sc), vehicle: saline + alcohol): 98 % of control
- T/C (dose: 40.0 mg/kg/injection, schedule: Q03HX027 (sc), vehicle: saline): 102 % of control
- T/C (dose: 45.0 mg/kg/injection, schedule: Q04DX003 (ip), vehicle: saline + alcohol): 92 % of control
- T/C (dose: 50.0 mg/kg/injection, schedule: Q01DX009 (ip), vehicle: saline + alcohol): 151 % of control
- T/C (dose: 54.0 mg/kg/injection, schedule: Q01DX005 (ip), vehicle: saline + alcohol): 113 % of control
- T/C (dose: 54.0 mg/kg/injection, schedule: Q01DX005 (iv), vehicle: saline + alcohol): 115 % of control
- T/C (dose: 60.0 mg/kg/injection, schedule: Q01DX009 (oral), vehicle: saline + alcohol): 117 % of control
- T/C (dose: 67.5 mg/kg/injection, schedule: Q01DX001 (ip), vehicle: saline + alcohol): 104 % of control
- T/C (dose: 67.5 mg/kg/injection, schedule: Q01DX001 (iv), vehicle: saline + alcohol): 105 % of control
- T/C (dose: 80.0 mg/kg/injection, schedule: Q03HX027 (sc), vehicle: saline + alcohol): 121 % of control
- T/C (dose: 80.0 mg/kg/injection, schedule: Q03HX027 (sc), vehicle: saline): 102 % of control
- T/C (dose: 90.0 mg/kg/injection, schedule: Q04DX003 (ip), vehicle: saline + alcohol): 91 % of control
- T/C (dose: 240.0 mg/kg/injection, schedule: Q01DX009 (oral), vehicle: saline + alcohol): 114 % of control
- T/C (dose: 36.0 micrograms per hour, schedule: Q#X X216 (sc), vehicle: saline): 100 % of control
- T/C (dose: 72.0 micrograms per hour, schedule: Q#X X216 (sc), vehicle: saline): 102 % of control
- T/C (dose: 144.0 micrograms per hour, schedule: Q#X X216 (sc), vehicle: saline): 118 % of control
